One series relates to SF-268. In words: Tested for growth inhibition against human SF-268 CNS cancer cell line at 100 uM. In kind it is functional.
Series [1] has as its system NCI-H460. Briefly: Tested for growth inhibition against human NCI-H460 lung cancer cell line at 100 uM. In kind it is functional.
Another series concerns Amphibalanus amphitrite. Briefly: Antifouling activity of compound against Balanus amphitrite expressed by inhibition of settlement of barnacle cyprids. In kind it is functional.
A further series relates to MCF7. In words: Tested for growth inhibition against human MCF-7 breast cancer cell line at 100 uM. In kind it is functional.
For a further series, the system named is SW-620. Briefly: Tested for the cytotoxicity against SW-620 colon cancer cell line […]. In kind it is functional. The note with it: Homo sapiens.
The subject of another series is CCRF-CEM. In words: Tested for the cytotoxicity against CCRF-CEM leukemia cell line […]. In kind it is functional. The note with it: Homo sapiens.
The next series relates to NCI-H226. Briefly: Tested for the cytotoxicity against NCI-H226 lung cancer cell line […]. In kind it is functional. The note with it: Homo sapiens.
Series [2] in a line: Tested for the lethality dose against barnacle cyprids of Balanus amphitrite. Conditions: Amphibalanus amphitrite; read-out: LD50 (the source's name).
Another series has as its system Hs-578T. Briefly: Tested for the cytotoxicity against Hs 578.T breast cancer cell line. In kind it is functional. The note with it: Homo sapiens.
The test system of series [3] is NCI-H460. In words: Tested for the cytotoxicity against NCI-H460 lung cancer cell line […]. In kind it is functional. Conditions: Homo sapiens.
Another series relates to P388. In words: Tested for the inhibition against P388 murine leukemia cell. The note with it: Mus musculus. In kind it is functional, cell-based.

Each structure is given as a SMILES string. Converted amounts (≈) assume the structure as drawn. Bounds are passed on as bounds.

For the compound `NCCOc1c(Br)cc(CCN)cc1Br`, the Growth with SF-268 amounted to 70%; in the series with NCI-H460 [1], 70%; in the series with MCF7, 39%. In the series with Amphibalanus amphitrite, a half-maximal response (EC50) required 0.8 µg/mL (≈ 2.37 µM).
As to `COc1c(Br)cc(CCN)cc1Br`, the GI50 (in general, the concentration giving 50% growth inhibition) with SW-620 is less than 10 nM; in the series on CCRF-CEM, less than 10 nM; with NCI-H226, less than 10 nM; with Hs-578T it was 200 nM. For the same compound, the Growth with SF-268 stood at 16%; with NCI-H460 [1], 53%; with MCF7, 8%. In addition, in the series with Amphibalanus amphitrite, the EC50 (commonly the concentration needed to bring the measured effect to its halfway point) was determined as 0.07 µg/mL (≈ 0.227 µM). In series [2], the LC50 was 0.2 µg/mL (≈ 0.647 µM).
Turning to `NCCCOc1ccc(CCN)cc1`, the Growth in the series with SF-268 is recorded as 120%; in the series with NCI-H460 [1], 120%; with MCF7 it was 104%. In the series with Amphibalanus amphitrite, this compound came in with an EC50 of more than 50 µg/mL.
Turning to `NCCCOc1c(Cl)cc(CCN)cc1Cl`, the Growth in the series on SF-268 is 85%; in the series with NCI-H460 [1], 93%; with MCF7, -53%. This compound gave a concentration for a half-maximal effect (EC50) in the series on Amphibalanus amphitrite of 33 µg/mL (≈ 125 µM).
The like results for `NCCCCOc1c(Br)cc(CCN)cc1Br` were, in that order, 50%, 25%, 19% and 6 µg/mL (≈ 16.4 µM).
`CCCCCCCC(=O)NCCc1cc(Br)c(OC)c(Br)c1`: the Growth in the series with SF-268 is on record as -68%; with NCI-H460 [1] it was 1%; in the series with MCF7 it was -74%. In the series on CCRF-CEM, this compound yielded a concentration for 50% growth inhibition (GI50) of 400 nM. Also, the EC50 in the series with Amphibalanus amphitrite stood at 0.2 µg/mL (≈ 0.46 µM). Further, in series [2], the LC50 turned out to be 1 µg/mL (≈ 2.3 µM).
Turning to `CC(=O)NCCc1cc(Br)c(O)c(Br)c1`, the figures for the Growth in the series on SF-268, with NCI-H460 [1] and in the series on MCF7 were 84%, 105% and 88%, respectively.
With `CCCCCCCCNCCc1cc(Br)c(OC)c(Br)c1`, the results for the Growth with SF-268, in the series on NCI-H460 [1] and in the series with MCF7 were -84%, -83% and -82%, respectively. Besides, in the series with Amphibalanus amphitrite, the EC50 turned out to be 0.008 µg/mL (≈ 0.019 µM). Also, the LC50 in [2] was found to be 0.03 µg/mL (≈ 0.0712 µM). Moreover, in the series with NCI-H460 [3], the GI50 was found to be 50 nM.
On to `N#CC(=O)NCCCOc1c(Br)cc(CCN)cc1Br` [CERATINAMINE], for which the Growth in the series on SF-268 came out at 39%; with NCI-H460 [1], 82%; with MCF7, 7%.
Take `NCCCOc1c(Br)cc(CCN)cc1Br` [MOLOKA'IAMINE]: the Growth with SF-268 is reported as 62%; with NCI-H460 [1] it was 68%; with MCF7, 38%. In the series with P388, the IC50 – broadly, the concentration that inhibits the measured activity by half – stood at 2.1 µg/mL (≈ 5.96 µM). The compound also registered an EC50 with Amphibalanus amphitrite of 5 µg/mL (≈ 14.2 µM).

The values are drawn from ChEMBL document CHEMBL1135233, “Cytotoxic, antifouling bromotyramines: a synthetic study on simple marine natural products and Their analogues” (Bioorg Med Chem Lett, 2002).
